# Reference: ChEMBL document CHEMBL3885881, “DrugMatrix”
# Organism: Rattus norvegicus
# Test: DrugMatrix - Regimen: Daily Repeat
# Format: toxicity, organism-based, Sprague-Dawley
# Parameters: regimen Daily Repeat, gender Male, age 6-8 weeks
# Conditions: in vivo, po, route oral GAVAGE, […]; for ABSOLUTE BASOPHIL / ABSOLUTE EOSINOPHIL / ABSOLUTE LYMPHOCYTE / ABSOLUTE MONOCYTE / ABSOLUTE SEGMENTED NEUTROPHIL / BASOPHIL / EOSINOPHIL / ERYTHROCYTE COUNT / HEMATOCRIT / HEMOGLOBIN / LEUKOCYTE COUNT / LYMPHOCYTE / MEAN CORPUSCULAR HEMOGLOBIN / MEAN CORPUSCULAR HEMOGLOBIN CONCENTRATION / MEAN CORPUSCULAR VOLUME / MONOCYTE / NEUTROPHIL / NUCLEATED RED BLOOD CELLS / PLATELET COUNT: tissue Blood; for ALANINE AMINOTRANSFERASE / ALBUMIN / ALKALINE PHOSPHATASE / ASPARTATE AMINOTRANSFERASE / BLOOD UREA NITROGEN / CARBON DIOXIDE / CHLORIDE / CHOLESTEROL / CREATINE PHOSPHOKINASE / CREATININE / GLUCOSE / LACTATE DEHYDROGENASE / LIPASE / PHOSPHORUS / POTASSIUM / SODIUM / TOTAL BILIRUBIN / TOTAL PROTEIN / URIC ACID: tissue Plasma
# [1] = 0 mg/kg, 72 h, dose level Control, time 3 day
# [2] = 0 mg/kg, 120 h, dose level Control, time 5 day
# [3] = 100 mg/kg, 72 h, dose level Low, time 3 day
smiles,measurement,setting,value
CCCC[C@@H](CC)COC(=O)c1ccccc1C(=O)OC[C@@H](CC)CCCC [BIS(2-ETHYLHEXYL)PHTHALATE],ABSOLUTE BASOPHIL,[1],0 CELLS/uL
same,ABSOLUTE EOSINOPHIL,[1],13.67 CELLS/uL
same,ABSOLUTE LYMPHOCYTE,[1],10069.5 CELLS/uL
same,ABSOLUTE MONOCYTE,[1],50 CELLS/uL
same,ABSOLUTE SEGMENTED NEUTROPHIL,[1],516.83 CELLS/uL
same,BASOPHIL,[1],0%
same,EOSINOPHIL,[1],0.17%
same,ERYTHROCYTE COUNT,[1],5.44 x10E6/uL
same,HEMATOCRIT,[1],33.88%
same,HEMOGLOBIN,[1],13.23 G/DL
same,LEUKOCYTE COUNT,[1],10.65 x10E3/uL
same,LYMPHOCYTE,[1],94.67%
same,MEAN CORPUSCULAR HEMOGLOBIN,[1],24.37 pg
same,MEAN CORPUSCULAR HEMOGLOBIN CONCENTRATION,[1],39.05 G/DL
same,MEAN CORPUSCULAR VOLUME,[1],62.38 fL
same,MONOCYTE,[1],0.67%
same,NEUTROPHIL,[1],4.5%
same,NUCLEATED RED BLOOD CELLS,[1],0.33 /100WBC
same,PLATELET COUNT,[1],414.5 x10E3/uL
same,ALANINE AMINOTRANSFERASE,[1],72 u/L
same,ALBUMIN,[1],3.75 G/DL
same,ALKALINE PHOSPHATASE,[1],375 u/L
same,ASPARTATE AMINOTRANSFERASE,[1],87.5 u/L
same,BLOOD UREA NITROGEN,[1],14 mg/dL
same,CARBON DIOXIDE,[1],27.5 mmol/L
same,CHLORIDE,[1],95.83 MEQ/L
same,CHOLESTEROL,[1],68.5 mg/dL
same,CREATINE PHOSPHOKINASE,[1],284.33 u/L
same,CREATININE,[1],0.16 mg/dL
same,GLUCOSE,[1],156.67 mg/dL
same,LACTATE DEHYDROGENASE,[1],101.83 u/L
same,LIPASE,[1],9.67 u/L
same,PHOSPHORUS,[1],10.33 mg/dL
same,POTASSIUM,[1],5.22 MEQ/L
same,SODIUM,[1],137.67 MEQ/L
same,TOTAL BILIRUBIN,[1],0.13 mg/dL
same,TOTAL PROTEIN,[1],5.43 G/DL
same,URIC ACID,[1],0.8 mg/dL
same,ABSOLUTE BASOPHIL,[2],0 CELLS/uL
same,ABSOLUTE EOSINOPHIL,[2],20.67 CELLS/uL
same,ABSOLUTE LYMPHOCYTE,[2],11518.33 CELLS/uL
same,ABSOLUTE MONOCYTE,[2],47 CELLS/uL
same,ABSOLUTE SEGMENTED NEUTROPHIL,[2],614 CELLS/uL
same,BASOPHIL,[2],0%
same,EOSINOPHIL,[2],0.17%
same,ERYTHROCYTE COUNT,[2],5.61 x10E6/uL
same,HEMATOCRIT,[2],34.25%
same,HEMOGLOBIN,[2],13.38 G/DL
same,LEUKOCYTE COUNT,[2],12.2 x10E3/uL
same,LYMPHOCYTE,[2],94.33%
same,MEAN CORPUSCULAR HEMOGLOBIN,[2],23.83 pg
same,MEAN CORPUSCULAR HEMOGLOBIN CONCENTRATION,[2],39.08 G/DL
same,MEAN CORPUSCULAR VOLUME,[2],61.03 fL
same,MONOCYTE,[2],0.33%
same,NEUTROPHIL,[2],5.17%
same,NUCLEATED RED BLOOD CELLS,[2],0 /100WBC
same,PLATELET COUNT,[2],941.83 x10E3/uL
same,ALANINE AMINOTRANSFERASE,[2],68.83 u/L
same,ALBUMIN,[2],4.12 G/DL
same,ALKALINE PHOSPHATASE,[2],492.67 u/L
same,ASPARTATE AMINOTRANSFERASE,[2],83.33 u/L
same,BLOOD UREA NITROGEN,[2],14 mg/dL
same,CARBON DIOXIDE,[2],37 mmol/L
same,CHLORIDE,[2],98.67 MEQ/L
same,CHOLESTEROL,[2],56.5 mg/dL
same,CREATINE PHOSPHOKINASE,[2],167.33 u/L
same,CREATININE,[2],0.17 mg/dL
same,GLUCOSE,[2],157.5 mg/dL
same,LACTATE DEHYDROGENASE,[2],104.83 u/L
same,LIPASE,[2],10 u/L
same,PHOSPHORUS,[2],10.43 mg/dL
same,POTASSIUM,[2],5.46 MEQ/L
same,SODIUM,[2],143.87 MEQ/L
same,TOTAL BILIRUBIN,[2],0.17 mg/dL
same,TOTAL PROTEIN,[2],5.72 G/DL
same,URIC ACID,[2],0.85 mg/dL
same,ABSOLUTE BASOPHIL,[3],0 CELLS/uL
same,ABSOLUTE EOSINOPHIL,[3],23 CELLS/uL
same,ABSOLUTE LYMPHOCYTE,[3],7479.67 CELLS/uL
same,ABSOLUTE MONOCYTE,[3],44.67 CELLS/uL
same,ABSOLUTE SEGMENTED NEUTROPHIL,[3],819.33 CELLS/uL
same,BASOPHIL,[3],0%
same,EOSINOPHIL,[3],0.33%
same,ERYTHROCYTE COUNT,[3],5.6 x10E6/uL
same,HEMATOCRIT,[3],35.03%
same,HEMOGLOBIN,[3],13.73 G/DL
same,LEUKOCYTE COUNT,[3],8.37 x10E3/uL
same,LYMPHOCYTE,[3],89%
same,MEAN CORPUSCULAR HEMOGLOBIN,[3],24.5 pg
same,MEAN CORPUSCULAR HEMOGLOBIN CONCENTRATION,[3],39.17 G/DL
same,MEAN CORPUSCULAR VOLUME,[3],62.6 fL
same,MONOCYTE,[3],0.67%
same,NEUTROPHIL,[3],10%
same,NUCLEATED RED BLOOD CELLS,[3],0 /100WBC
same,PLATELET COUNT,[3],750.33 x10E3/uL
same,ALANINE AMINOTRANSFERASE,[3],89.33 u/L
same,ALBUMIN,[3],3.97 G/DL
same,ALKALINE PHOSPHATASE,[3],408.33 u/L
same,ASPARTATE AMINOTRANSFERASE,[3],88.67 u/L
same,BLOOD UREA NITROGEN,[3],14 mg/dL
same,CARBON DIOXIDE,[3],26.67 mmol/L
same,CHLORIDE,[3],96 MEQ/L
same,CHOLESTEROL,[3],60 mg/dL
same,CREATINE PHOSPHOKINASE,[3],210.67 u/L
same,CREATININE,[3],0.11 mg/dL
same,GLUCOSE,[3],148.33 mg/dL
same,LACTATE DEHYDROGENASE,[3],81 u/L
same,LIPASE,[3],10.33 u/L
same,PHOSPHORUS,[3],10 mg/dL
same,POTASSIUM,[3],5.11 MEQ/L
same,SODIUM,[3],138.1 MEQ/L
same,TOTAL BILIRUBIN,[3],0.17 mg/dL
same,TOTAL PROTEIN,[3],5.5 G/DL
same,URIC ACID,[3],0.63 mg/dL
